US9187424B1, “Aryl dihydropyridinones and piperidinone MGAT2 inhibitors” (Bristol-Myers Squibb Company, priority 2011, dated 2015)

What follows are compounds tested against Human MGAT-2 (Homo sapiens (Human), UniProt Q3SYC2) (assay: MGAT LCMS Assay (human MGAT-2)). Conditions: human MGAT-2 membranes expressed in Sf9 cells; 2-oleoylglycerol and oleoyl-Coenzyme A; read-out: h-MGAT2 IC50 (nM) LCMS Assay.
Type: biochemical
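Also: diolein product quantified by LC/MS with positive APCI, expressed as peak area ratio versus an internal standard, and this ratio used to derive IC50.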

Chain of Human MGAT-2 (Q3SYC2 whole entry): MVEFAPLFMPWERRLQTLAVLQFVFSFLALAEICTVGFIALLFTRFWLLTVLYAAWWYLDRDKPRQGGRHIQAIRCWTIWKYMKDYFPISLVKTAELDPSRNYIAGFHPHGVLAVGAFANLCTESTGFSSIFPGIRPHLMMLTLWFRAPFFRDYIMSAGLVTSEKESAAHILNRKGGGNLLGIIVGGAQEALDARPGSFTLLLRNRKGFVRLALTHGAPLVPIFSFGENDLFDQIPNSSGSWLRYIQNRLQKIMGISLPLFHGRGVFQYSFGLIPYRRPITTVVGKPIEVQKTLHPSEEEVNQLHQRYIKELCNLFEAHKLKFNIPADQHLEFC

| SMILES | IC50 |
| --- | --- |
| Cc1ccc(C2=C(NC(=O)c3ccccc3Cl)C(=O)NC(c3ccc(OCCCC(F)(F)F)cc3)(C(F)(F)F)C2)cc1 (stereo not drawn) [Example 168] | 113 nM |
| O=C1NC(c2ccc(OCCCC(F)(F)F)cc2)(C(F)(F)F)CC(c2ccc(OC(F)F)cc2)=C1c1nn[nH]n1 (stereo not drawn) [Example 245] | 46 nM |
| COc1ccc(C2=C[C@@](c3ccc(OCCCC(F)(F)F)cc3)(C(F)(F)F)NC(=O)C2(F)C#N)cc1 (stereo in doubt) [Example 15-4, 3-Fluoro-4-(4-methoxyphenyl)-2-oxo-6-(4-(4,4,4-trifluorobutoxyl)phenyl)-6-(trifluoromethyl)-1,2,3,6-tetrahydropyridine-3-carbonitrile] | 2050 nM |
| Cc1ccc(C2=C(n3ccnc3)C(=O)NC(c3ccc(OCCCC(F)(F)F)cc3)(C(F)(F)F)C2)cc1 (stereo not drawn) [Example 114] | 704 nM |
| COc1ccc(NC(=O)C2=C(c3ccc(C)cc3F)CC(c3ccc(OCCCC(F)(F)F)cc3)(C(F)(F)F)NC2=O)cc1 (stereo not drawn) [Example 296] | 2 nM |
| O=C(Nc1cccnc1)C1=C(c2ccc(OC(F)F)cc2)CC(c2ccc(OCCCC(F)(F)F)cc2)(C(F)(F)F)NC1=O (stereo not drawn) [Example 280] | 2 nM |
| Cc1ccc(C2=C(C(=O)Nc3nn[nH]n3)C(=O)NC(c3ccc(OCCC(F)(F)F)cc3)(C(F)(F)F)C2)cc1 (stereo not drawn) [Example 125] | 282 nM |
| O=C1NC(c2ccc(OCCCCCC(F)(F)F)cc2F)(C(F)(F)F)CC(c2ccc(CC(F)(F)F)cc2)=C1c1nn[nH]n1 (stereo not drawn) [Example 284] | 4 nM |
| O=C1NC(c2ccc(OCCCC(F)(F)F)cc2)(C(F)(F)F)CC(c2ccc3c(c2)CCCC3)=C1c1nn[nH]n1 (stereo not drawn) [Example 210] | 2 nM |
| COc1ccc(C2=C(C#N)C(=O)NC(c3ccc(OCCCC(F)(F)F)cc3)(C(F)(F)F)C23CC3)cc1 (stereo not drawn) [Example 14, 8-(4-Methoxyphenyl)-6-oxo-4-(4-(4,4,4-trifluorobutoxyl)phenyl)-4-(trifluoro-methyl)-5-azaspiro[2.5]oct-7-ene-7-carbonitrile] | 2050 nM |
| COOSNc1ccc(C2=C(C#N)C(=O)NC(c3ccc(OCCCC(F)(F)F)cc3)(C(F)(F)F)C2)cc1 (stereo not drawn) [Example 225] | 889 nM |
| Cc1ccc(C2=C(NC(=O)c3cnco3)C(=O)NC(c3ccc(OCCCC(F)(F)F)cc3)(C(F)(F)F)C2)cc1 (stereo not drawn) [Example 152] | 252 nM |
| Cc1ccc(C2=C(C#N)C(=O)NC(c3ccc(OCCCCCC(F)(F)F)cc3)(C(F)(F)F)C2)cc1 (stereo not drawn) [Example 184] | 76 nM |
| Cc1ccc(C2=C(NC(=O)CS(C)(=O)=O)C(=O)NC(c3ccc(OCc4ccccc4)cc3)(C(F)(F)F)C2)cc1 (stereo not drawn) [Example 279] | 2 nM |
| CCCCCCC#Cc1ccc(C2(C(F)(F)F)CC(c3ccc(OC(F)F)cc3)=C(c3nn[nH]n3)C(=O)N2)cc1F (stereo not drawn) [Example 307] | 3 nM |
| Cc1ccc(C2=C(C(=O)Nc3cn(C)cn3)C(=O)NC(c3ccc(OCCCC(F)(F)F)cc3)(C(F)(F)F)C2)cc1 (stereo not drawn) [Example 87] | 1220 nM |
| CC(=O)C(=O)NC1=C(c2ccc(C)cc2)CC(c2ccc(OCCCC(F)(F)F)cc2)(C(F)(F)F)NC1=O (stereo not drawn) [Example 250] | 243 nM |
| COc1ccc(C(=O)NC2=C(c3ccc(C)cc3)CC(c3ccc(OCCCC(F)(F)F)cc3)(C(F)(F)F)NC2=O)nn1 (stereo not drawn) [Example 232] | 6 nM |
| O=C1NC(c2ccc(OCCCC(F)(F)F)cc2)(C(F)(F)F)CC(c2ccc(OC(F)F)cc2)=C1NC(=O)c1ccncc1 (stereo not drawn) [Example 275] | 2 nM |
| CCCCCCCCNC(=O)C1(C)CC(c2ccc(C)cc2)=C(C#N)C(=O)N1 (stereo not drawn) [Example 177] | 399 nM |
| CCOc1ccc(C2=C(C#N)C(=O)NC(c3ccc(OCCCC(F)(F)F)cc3)(C(F)(F)F)C2)cc1Cl (stereo not drawn) [Example 226] | 206 nM |

| SMILES | IC50 |
| --- | --- |
| N#CC1=C(c2ccc(Cl)c(Cl)c2)CC(c2ccc(OCCCC(F)(F)F)cc2)(C(F)(F)F)NC1=O (stereo not drawn) [Example 222] | 733 nM |
| Cc1ccc(NC(=O)C2=C(c3ccc(C)cc3)CC(c3ccc(OCCC(F)(F)F)cc3)(C(F)(F)F)NC2=O)cc1 (stereo not drawn) [Example 129] | 222 nM |
| COc1ccc(C2=C(C#N)C(=O)NC(c3ccc(OCCCC(F)(F)F)cc3)(C(F)(F)F)C2)cc1Cl (stereo not drawn) [Example 258] | 1150 nM |
| COc1ccc(C2=C(C#N)C(=O)NC(c3ccc(OCCCC(F)(F)F)cc3)(C(F)(F)F)C2)cc1Cl (stereo not drawn) [Example 223] | 112 nM |
| Cc1ccc(C2=C(NC(=O)c3cccnc3)C(=O)NC(c3ccc(OCCCC(F)(F)F)cc3)(C(F)(F)F)C2)cc1 (stereo not drawn) [Example 299] | 11 nM |
| CCCCCCc1cnc(C2(C)CC(c3ccc(C)cc3)=C(C#N)C(=O)N2)o1 (stereo not drawn) [Example 108, 6-(5-Hexyloxazol-2-yl)-6-methyl-2-oxo-4-p-tolyl-1,2,5,6-tetrahydropyridine-3-carbonitrile] | 189 nM |
| COc1ccc(C(=O)NC2=C(c3ccc(C)cc3)CC(c3cnn(CCCCCC(F)(F)F)c3)(C(F)(F)F)NC2=O)cc1 (stereo not drawn) [Example 228] | 7 nM |
| Cc1ccc(C2=C(C(=O)NC3CCCC3)C(=O)NC(c3ccc(OCCCC(F)(F)F)cc3)(C(F)(F)F)C2(F)F)cc1 (stereo not drawn) [Example 141] | 459 nM |
| Cc1ccc(C2=C(c3nn[nH]n3)C(=O)NC(c3ccc(OCCC4CC4)cc3)(C(F)(F)F)C2)cc1 (stereo not drawn) [Example 285] | 4 nM |
| O=C1NC(c2ccc(OCCCCCC(F)(F)F)c(F)c2)(C(F)(F)F)CC(c2ccc3ccccc3c2)=C1c1nn[nH]n1 (stereo not drawn) [Example 304] | 6 nM |
| COc1ccc(NC(=O)C2=C(c3ccc(C)cc3)C(F)(F)C(c3ccc(OC)cc3)(C(F)(F)F)NC2=O)cc1 (stereo not drawn) [Example 181] | 2050 nM |
| COCc1ccc(C2=C(C#N)C(=O)NC(c3ccc(OCCCC(F)(F)F)cc3)(C(F)(F)F)C2)cc1 (stereo not drawn) [Example 260] | 56 nM |
| Cc1ccc(C2=C(c3nnn[nH]3)C(=O)NC(c3ccc(OCCCC(F)(F)F)cc3)(C(F)(F)F)C2)c(C)c1 (stereo not drawn) [Example 156] | 254 nM |
| Cc1ccc(C2=C(NC(=O)c3cc(-c4ccccc4Cl)no3)C(=O)NC(c3ccc(OCCCC(F)(F)F)cc3)(C(F)(F)F)C2)cc1 (stereo not drawn) [Example 185] | 121 nM |
| O=C1NC(c2ccc(OCCCC(F)(F)F)cc2)(C(F)(F)F)CC(c2ccc3c(c2)OCO3)=C1c1nn[nH]n1 (stereo not drawn) [Example 211] | 97 nM |
| CCCCCCCC#CC1(C(F)(F)F)CC(c2ccc(C)cc2)=C(c2cn[nH]n2)C(=O)N1 (stereo not drawn) [Example 195] | 33 nM |
| CCOc1ccc(C2=C(c3nn[nH]n3)C(=O)NC(c3ccc(OCCCC(F)(F)F)cc3)(C(F)(F)F)C2)cc1 (stereo not drawn) [Example 208] | 30 nM |
| Cc1ccc(C2=C(c3nn[nH]n3)C(=O)NC(c3ccc(OCCCCCC(F)(F)F)c(C)c3)(C(F)(F)F)C2)cc1 (stereo not drawn) [Example 287] | 13 nM |
| COOCNc1ccc(C2=C(C#N)C(=O)NC(c3ccc(OCCCC(F)(F)F)cc3)(C(F)(F)F)C2)cc1 (stereo not drawn) [Example 257] | 421 nM |
| CN(C)c1ccc(C2=C(c3nn[nH]n3)C(=O)NC(c3ccc(OCCCC(F)(F)F)cc3)(C(F)(F)F)C2)cc1 (stereo not drawn) [Example 238] | 7 nM |
| Cc1ccc(C2=C(C#N)C(=O)NC(c3cnn(CCCCC(F)(F)F)c3)(C(F)(F)F)C2)cc1 (stereo not drawn) [Example 227] | 63 nM |

| SMILES | IC50 |
| --- | --- |
| Cc1ccc(C2=C(c3cn[nH]n3)C(=O)NC(C#CCCC(C)C)(C(F)(F)F)C2)cc1 (stereo not drawn) [Example 199] | 16 nM |
| Cc1ccc(C2=C(c3cn[nH]n3)C(=O)NC(C#CCCc3ccccc3)(C(F)(F)F)C2)cc1 (stereo not drawn) [Example 198] | 16 nM |
| O=C1NC(c2ccc(OCCCCCC(F)(F)F)c(F)c2)(C(F)(F)F)CC(c2ccc(CC(F)(F)F)cc2)=C1c1nn[nH]n1 (stereo not drawn) [Example 306] | 3 nM |
| Cc1ccc(C2=C(c3nn[nH]n3)C(=O)NC(c3cccc(OCCCC(F)(F)F)c3)(C(F)(F)F)C2)cc1 (stereo not drawn) [Example 267] | 796 nM |
| COc1ccc(C2=C(c3nn[nH]n3)C(=O)NC(c3ccc(OCCCC(F)(F)F)cc3)(C(F)(F)F)C2)cc1 (stereo not drawn) [Example 193] | 46 nM |
| Cc1ccc(C2=C(c3nn[nH]n3)C(=O)NC(c3ccc(OCC4CC(F)(F)C4)cc3)(C(F)(F)F)C2)cc1 (stereo not drawn) [Example 288] | 19 nM |
| COc1ccc(C2=C(c3nn[nH]n3)C(=O)NC(C#CCCC(C)C)(C(F)(F)F)C2)cc1 (stereo not drawn) [Example 295] | 183 nM |
| COc1ccc(C2=C(c3nn[nH]n3)C(=O)NC(c3ccc(OCCCCCC(F)(F)F)cc3)(C(F)(F)F)C2)cc1 (stereo not drawn) [Example 247] | 51 nM |
| CCCCCCC#CC1(C(F)(F)F)CC(c2ccc(C)cc2)=C(NC(=O)c2cccnc2)C(=O)N1 (stereo not drawn) [Example 300] | 11 nM |
| O=C1NC(c2ccc(OCCCC(F)(F)F)cc2F)(C(F)(F)F)CC(c2ccc(CC3CC3)cc2)=C1c1nn[nH]n1 (stereo not drawn) [Example 277] | 2 nM |
| Cc1ccc(C2=C(NC(=O)c3cccc(Cl)c3)C(=O)NC(c3ccc(OCCCC(F)(F)F)cc3)(C(F)(F)F)C2)cc1 (stereo not drawn) [Example 169] | 421 nM |
| Cc1ccc(C2=C(NC(=O)c3cnccn3)C(=O)NC(c3ccc(OCCCC(F)(F)F)cc3)(C(F)(F)F)C2)cc1 (stereo not drawn) [Example 153] | 247 nM |
| O=C1NC(c2ccc(OCCCC(F)(F)F)cc2)(C(F)(F)F)CC(c2ccc3c(c2)OCCO3)=C1c1nn[nH]n1 (stereo not drawn) [Example 209] | 37 nM |
| Cc1ccc(C2=C(C#N)C(=O)NC(c3ccc(OCCCC(F)(F)F)cc3)(C(F)(F)F)C2)cc1F (stereo not drawn) [Example 256] | 22 nM |
| COc1ccc(C2=C(c3nn[nH]n3)C(=O)NC(c3ccc(OCCCC(F)(F)F)cc3)(C(F)(F)F)C2)c2c1CCC2 (stereo not drawn) [Example 212] | 416 nM |
| Cc1ccc(C2=C(NC(=O)CS(C)(=O)=O)C(=O)NC(c3ccc(OCCCC(F)(F)F)cc3)(C(F)(F)F)C2)cc1 (stereo not drawn) [Example 239] | 15 nM |
| O=C1NC(c2ccc(OCCCCCC(F)(F)F)c(F)c2)(C(F)(F)F)CC(c2ccc3ccccc3c2)=C1c1nn[nH]n1 (stereo not drawn) [Example 309] | 1 nM |
| COc1ccc(C2=C(c3nn[nH]n3)C(=O)NC(c3ccc(OCC(F)(F)F)cc3)(C(F)(F)F)C2)cc1 (stereo not drawn) [Example 240] | 7 nM |
| CCCCCNC(=O)c1ccc(C2(C)CC(c3ccc(C)cc3)=C(C(=O)Nc3ccc(OC)cc3)C(=O)N2)cc1 (stereo not drawn) [Example 161] | 1260 nM |
| Cc1ccc(NC(=O)C2=C(c3ccc(C)cc3)C(F)(F)C(c3ccc(OCCC(F)(F)F)cc3)(C(F)(F)F)NC2=O)cc1 (stereo not drawn) [Example 135] | 778 nM |
| O=C1NC(c2ccc(OCCCC(F)(F)F)cc2)(C(F)(F)F)CC(c2ccccc2)=C1c1nn[nH]n1 (stereo not drawn) [Example 97] | 1200 nM |
